Assay results: US9801858B2, “Progress-supressing or improving agent for chronic kidney disease” (NIPPON ZOKI PHARMACEUTICAL CO., LTD., priority 2014, dated 2017)
Entries after “also recorded” stand apart in the source; their conditions may differ. Read-outs that look alike come from different tables or passages of the source.

Legend:
[1] = system: patients with CKD (rapidly-progressive and slowly-progressive); assay: new clinical tests: investigational drug orally once daily for 24 weeks, CKD stage 3 or 4; assay type: in vivo, human; settings: for progress of worsening of the renal function (inclination of regression line to 1/sCr, before vs after): 24 weeks
Text: During such a period, a good idea has occurred that the effect of the present compound is investigated after dividing the patients with CKD into groups where worsening of the renal function is rapid and is not. As a result, the patients with CKD were divided into a group where changes in the reciprocal sCr value (1/sCr) per month before administration of the test drug are 0.01 dL/mg or more and worsening of the renal function is rapidly progressing (hereinafter, that will be referred to as “rapidly progressive CKD patients”) and another group where said changes are less than 0.01 dL/mg (hereinafter, that will be referred to as “slowly progressive CKD patients”) and clinical tests comparing the effect of the present compound were carried out. (Hereinafter, that will be referred to as “new clinical tests”.) Such a yardstick where the changes in the reciprocal sCr value are 0.01 dL/mg or more followed the yardstick adopted in the application of “Kremezin (Registered Trade Mark)” which is the above-mentioned spherical adsorptive carbon preparation. Further, in the new clinical tests, dose of the present compound was increased to some extent so as to find the difference from the results in the old clinical tests. Summary and result of the new clinical tests will be mentioned as follows.
A clinical test for evaluating the efficacy and the safety of the present compound was conducted using the patients where the CKD stage was 3 or 4 as the object. Persons who meet the following selection criteria were selected from the patients who were diagnosed as CKD and receiving a conservation therapy. • Sex is withdrawn from the consideration. Pregnant women and mothers suckling a baby are however excluded. • Age is from 20 to 75 years old. • GFR value is 15 to 59. • Patients where the serum creatinine (sCr) value is within a range of 1.5 to 5.0 mg/dL at the start of the test, the measuring frequencies from 52 weeks before the test until the start of the test are thrice or more and the difference in the tested values in the initial and the final stages is 0.2 mg/dL or more (showing a rise). • Patients where a therapy with a pharmaceutical agent which is thought to suppress the progress of CKD (such as a spherical adsorptive carbon preparation) or a diet therapy is newly started during three month before the start of the test are excluded. • Moreover, patients having a symptom of cerebrovascular disturbance, patients with infectious disease and patients with peptic ulcer are excluded.
After that, the objects were divided into the rapidly-progressive CKD patients and slowly-progressive CKD patients.
As a result, in the new clinical tests, the groups to which the tablets containing the present compound as an active ingredient (test drug) are administered and to which the tablets containing no active ingredient though being undistinguishable from the test drug are divided into six groups in total. Thus, they are three groups for slowly-progressive CKD patients comprising a placebo-administered group, a 800 mg test drug-administered group and a 1600 mg test drug-administered group and other three groups for a rapidly-progressive CKD patients comprising a placebo-administered, a 800 mg test drug-administered group and a 1600 mg test drug-administered group whereby there are six groups in total. The weight mentioned hereinabove is a weight of the present compound contained in the test drug and is a dose for one day. […]

[2] = system: patients with diabetic CRF; settings: cited from earlier work
[3] = system: rats with chronic renal failure; settings: adenine-induced chronic renal failure; cited from earlier work

Structure (SMILES): CN1C(=O)NC(=O)C1O (stereo not shown) [the present compound, 5-hydroxy-1-methylhydantoin]
- progress of worsening of the renal function (inclination of regression line to 1/sCr, before vs after) ([1]; 800 mg/day, rapidly-progressive CKD patients (five test subjects), Dunnett test): significantly suppressed or improved; also recorded: a downward-sloping inclination becomes somewhat upward rather than moderate
- progress of worsening of the renal function (inclination of regression line to 1/sCr, before vs after) ([1]; 800 mg/day, slowly-progressive CKD patients): No such an effect was achieved
- progress of worsening of the renal function (inclination of regression line to 1/sCr, before vs after) ([1]; 1600 mg/day, rapidly-progressive CKD patients): a certain effect was noted in a rapidly-progressive CKD patient but the effect was not so significant
- progress of worsening of the renal function (inclination of regression line to 1/sCr, before vs after) ([1]; 1600 mg/day, slowly-progressive CKD patients): No effect was noted
- side effect / safety ([1]; all cases including the 1600 mg/day-administered group, 24 weeks oral): almost no side effect is noted; also recorded: no critical side effect becoming a problem is observed
- inclination of the regression line of 1/sCr versus time ([2]; 200 mg/day group (n=11), after the administration (24 weeks), mean±S.D., p=0.01, Non-Patent Document 2): −0.00046±0.00043
- inclination of the regression line of 1/sCr versus time ([2]; 200 mg/day group (n=11), before the administration, mean±S.D., Non-Patent Document 2): −0.00075±0.00066
- inclination of the regression line of 1/sCr versus time ([2]; 200 mg/day group (n=12), after the administration, p=0.016, Non-Patent Document 1): −0.0004±0.00047
- inclination of the regression line of 1/sCr versus time ([2]; 200 mg/day group (n=12), before the administration, Non-Patent Document 1): −0.00078±0.00064
- inclination of the regression line of 1/sCr versus time ([2]; 400 mg/day group (n=11), after the administration (24 weeks), mean±S.D., p=0.02, Non-Patent Document 2): −0.00066±0.00097
- inclination of the regression line of 1/sCr versus time ([2]; 400 mg/day group (n=11), after the administration, p=0.024, Non-Patent Document 1): −0.00068±0.00096
- inclination of the regression line of 1/sCr versus time ([2]; 400 mg/day group (n=11), before the administration, Non-Patent Document 1): −0.00098±0.00077
- inclination of the regression line of 1/sCr versus time ([2]; 400 mg/day group (n=11), before the administration, mean±S.D., Non-Patent Document 2): −0.00098±0.00077
- side effect in the clinical test and in the clinical symptom ([2]; 200 or 400 mg/day orally for 24 weeks): No critical side effect
- accumulation of the pharmaceutical agent ([2]; during the course of the clinical test, 200 or 400 mg/day for 24 weeks): no accumulation
- action on uremic toxin such as urea nitrogen and creatinine [3]: action of lowering the uremic toxin
